Tests used:
[1] = tested on: human salty taste (sodium chloride taste intensity); test: Human salty taste perception (perceived salt intensity); assay type: in vivo; settings: tested at 300-fold (amiloride) and 3000-fold above IC50 values for alpha beta gamma ENaC
Description: Unlike other mammals, amiloride only slightly reduces the intensity of sodium chloride taste, i.e., by about 15-20% when used at concentrations that specifically modulate ENaC function (Halpern, B. P. (1998) Neuroscience and Behavioral Reviews. 23: 5-47). […] Based thereon, it was theorized that other (ENaC genes) were involved in human salty taste perception.

[2] = target: T1, αENaC (Homo sapiens, UniProt P37088); test: FLIPR membrane potential dye assay, HEK293 cells transfected with αENaC; assay type: cell-based; settings: 30 uM Amiloride; αENaC versus A419P-TRPML3 transfected cells
T1 construct: expressed in transfected cells; host or cells: HEK293, transient transfection
T1 sequence (P37088 whole entry): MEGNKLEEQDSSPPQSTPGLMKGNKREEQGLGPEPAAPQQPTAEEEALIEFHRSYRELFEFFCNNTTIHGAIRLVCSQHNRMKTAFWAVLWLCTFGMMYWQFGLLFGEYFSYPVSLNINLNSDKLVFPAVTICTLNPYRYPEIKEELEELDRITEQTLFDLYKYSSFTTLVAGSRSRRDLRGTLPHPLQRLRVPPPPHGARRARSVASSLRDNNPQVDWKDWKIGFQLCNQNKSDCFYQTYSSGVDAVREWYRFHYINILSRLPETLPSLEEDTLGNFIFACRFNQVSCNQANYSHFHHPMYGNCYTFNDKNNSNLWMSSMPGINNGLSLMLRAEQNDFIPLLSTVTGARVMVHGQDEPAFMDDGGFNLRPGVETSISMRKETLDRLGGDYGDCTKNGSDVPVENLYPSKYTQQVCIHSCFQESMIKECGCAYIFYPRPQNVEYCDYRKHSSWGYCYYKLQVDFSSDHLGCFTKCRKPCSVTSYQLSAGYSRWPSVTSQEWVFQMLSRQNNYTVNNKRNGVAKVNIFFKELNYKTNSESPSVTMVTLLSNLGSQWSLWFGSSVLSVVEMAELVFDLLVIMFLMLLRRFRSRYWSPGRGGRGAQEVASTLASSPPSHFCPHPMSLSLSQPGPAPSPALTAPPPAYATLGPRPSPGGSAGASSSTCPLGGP
Procedure: (§1) HEK293 cells were transiently transfected with RFP, αENaC or A419P-TRPML3 and were loaded with a membrane potential dye (R-8034; Molecular Devices) in HBSS at room temperature for 30 minutes. Membrane potential (fluorescent signal) was monitored on a FLIPR system (Molecular Devices).
as §1, with “RFP, A419P-TRPML3 or” for “RFP,”, “plasmid” for “or A419P-TRPML3”, “HBSS (control), 3 mM gadolinium and 30 uM Amiloride were added to the cells and resulting changes in membrane” for “Membrane”

[3] = tested on: human salty taste (sodium chloride taste intensity); settings: concentrations that specifically modulate ENaC function; cited from earlier work
[4] = target: T2, human TRPML3 (Homo sapiens, UniProt Q8TDD5); test: Whole cell patch clamp electrophysiology of cells expressing human TRPML3; assay type: cell-based
T2 construct: expressed in transfected cells
T2 sequence (Q8TDD5 1-553): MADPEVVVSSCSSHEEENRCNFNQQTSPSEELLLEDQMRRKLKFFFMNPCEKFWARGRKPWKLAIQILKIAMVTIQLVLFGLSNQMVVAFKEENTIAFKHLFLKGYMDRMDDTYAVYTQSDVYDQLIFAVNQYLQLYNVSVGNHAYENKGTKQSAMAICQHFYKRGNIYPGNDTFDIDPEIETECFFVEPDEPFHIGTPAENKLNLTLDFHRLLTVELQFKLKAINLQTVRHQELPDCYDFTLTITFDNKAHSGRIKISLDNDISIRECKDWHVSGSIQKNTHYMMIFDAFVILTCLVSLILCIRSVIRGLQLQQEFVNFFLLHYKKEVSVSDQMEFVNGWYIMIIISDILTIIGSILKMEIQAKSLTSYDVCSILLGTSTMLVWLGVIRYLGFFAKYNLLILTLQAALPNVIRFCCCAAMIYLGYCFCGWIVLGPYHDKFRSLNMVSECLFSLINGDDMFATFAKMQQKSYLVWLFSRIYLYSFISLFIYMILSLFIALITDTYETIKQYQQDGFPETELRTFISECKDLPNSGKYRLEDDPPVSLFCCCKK
Description: The whole cell voltage clamp technique is an electrophysiology method that measures the macroscopic electrical current flowing across the entire plasma membrane though protein channels. Live mammalian cells are placed in a special microscope chamber containing extracellular solution. Guided by a micromanipulator and under visual control, a small diameter glass pipette filled with an electrically conductive salt solution is first attached to the cell membrane using gentle negative pressure resulting in a high resistance gigaOhm seal. The membrane patch within the pipette is disrupted using further suction resulting in the whole cell patch clamp configuration. The whole cell patch clamp configuration allows the combined measurement of all ion channels proteins within the membrane or macroscopic current. Using the patch clamp amplifier in combination with the whole-cell patch clamp configuration allows the operator to control the voltage, or potential difference across the entire cell membrane, as well as the both the internal and external ionic composition of the cell. […]

[5] = target: T3, A419P TRPML3 (Homo sapiens, UniProt Q8TDD5, A419P); test: FLIPR membrane potential dye assay, HEK293 cells expressing A419P-TRPML3; assay type: cell-based; settings: amiloride
T3 construct: expressed in transfected cells
T3 sequence (Q8TDD5 1-553 A419P): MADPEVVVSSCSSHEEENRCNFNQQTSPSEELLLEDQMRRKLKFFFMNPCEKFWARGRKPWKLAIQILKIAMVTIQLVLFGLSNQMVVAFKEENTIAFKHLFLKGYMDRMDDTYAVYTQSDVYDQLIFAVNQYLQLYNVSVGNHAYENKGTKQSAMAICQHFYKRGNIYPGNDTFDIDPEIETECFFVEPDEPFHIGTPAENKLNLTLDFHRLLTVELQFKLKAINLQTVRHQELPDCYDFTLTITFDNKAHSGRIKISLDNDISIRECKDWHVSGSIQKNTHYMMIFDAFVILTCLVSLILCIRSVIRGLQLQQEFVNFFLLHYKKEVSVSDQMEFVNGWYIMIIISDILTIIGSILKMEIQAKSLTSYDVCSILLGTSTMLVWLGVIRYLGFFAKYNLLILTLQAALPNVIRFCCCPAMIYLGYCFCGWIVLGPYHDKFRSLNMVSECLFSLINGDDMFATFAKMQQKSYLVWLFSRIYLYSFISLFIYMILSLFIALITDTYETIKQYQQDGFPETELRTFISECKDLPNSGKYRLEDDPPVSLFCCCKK
Description: Specific cell-based assays for the discovery of TRPML3 modulators were developed which that could ultimately be used in food and beverages to modulate saltiness perception. A419P-TRPML3 function was monitored in HEK293 cells transiently transfected or transduced with the gene encoding A419P-TRPML3 and using specific membrane potential dyes (FMPs; Molecular Devices).
as §1
(§2) HEK293 cells were transiently transfected with RFP or A419P-TRPML3 and were loaded with a membrane potential dye (R-8034; Molecular Devices) in HBSS at room temperature for 30 minutes. Membrane potential (fluorescent signal) was monitored on a FLIPR system (Molecular Devices).
as §2, with “HBSS, NMDG and increasing concentrations of gadolinium were added to the cells and resulting changes in membrane” for “Membrane”
as §1, with “RFP, A419P-TRPML3 or” for “RFP,”, “plasmid” for “or A419P-TRPML3”, “HBSS (control), 3 mM gadolinium and 30 uM Amiloride were added to the cells and resulting changes in membrane” for “Membrane”

[6] = target: T4, Homo sapiens TRPML3 A419P, expressed in HEK293 cells (human, UniProt Q8TDD5 1-553); test: cell-based or functional assay
T4 sequence: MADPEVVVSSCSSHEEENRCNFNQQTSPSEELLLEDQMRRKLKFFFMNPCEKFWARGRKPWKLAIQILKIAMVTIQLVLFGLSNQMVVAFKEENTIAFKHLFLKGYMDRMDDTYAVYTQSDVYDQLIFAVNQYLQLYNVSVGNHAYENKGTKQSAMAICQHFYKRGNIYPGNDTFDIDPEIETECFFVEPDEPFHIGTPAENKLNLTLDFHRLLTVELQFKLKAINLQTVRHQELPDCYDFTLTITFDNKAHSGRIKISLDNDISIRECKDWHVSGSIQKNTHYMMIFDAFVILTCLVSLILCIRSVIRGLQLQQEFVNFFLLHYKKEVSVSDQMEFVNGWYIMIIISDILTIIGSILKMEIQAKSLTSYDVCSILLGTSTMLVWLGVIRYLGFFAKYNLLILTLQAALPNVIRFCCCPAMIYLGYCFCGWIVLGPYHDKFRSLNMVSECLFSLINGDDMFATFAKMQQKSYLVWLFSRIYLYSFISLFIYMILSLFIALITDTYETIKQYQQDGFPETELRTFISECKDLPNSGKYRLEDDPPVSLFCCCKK

Molecule	effect on perceived human salt intensity [1]	effect on basal fluorescence counts, specificity [2]	reduction of the intensity of sodium chloride taste [3]	block of TRPML3 sodium conductance (current-voltage curves) ([4]; 30 uM amiloride)	block of TRPML3 ([4]; no concentration given)	effect on the increased basal fluorescence elicited by A419P-TRPML3 [5]	inward currents, whole cell patch clamp, HEK293 cells coexpressing A419P (0.5 ug) and WT (1.5 ug) TRPML3 cDNAs [6]
N=C(N)NC(=O)c1nc(Cl)c(N)nc1N [amiloride]	did not elicit a significant effect	preferentially reduces basal fluorescence counts	15-20%	not blocked	not blocked	no effect	
NC(=Nc1ccccc1)NC(=O)c1nc(Cl)c(N)nc1N [phenamil]	did not elicit a significant effect						
Homo sapiens TRPML3 (NM_018298), wild-type, non codon optimized cDNA, expressed in HEK293 cells (other) MADPEVVVSSCSSHEEENRCNFNQQTSPSEELLLEDQMRRKLKFFFMNPCEKFWARGRKPWKLAIQILKIAMVTIQLVLFGLSNQMVVAFKEENTIAFKHLFLKGYMDRMDDTYAVYTQSDVYDQLIFAVNQYLQLYNVSVGNHAYENKGTKQSAMAICQHFYKRGNIYPGNDTFDIDPEIETECFFVEPDEPFHIGTPAENKLNLTLDFHRLLTVELQFKLKAINLQTVRHQELPDCYDFTLTITFDNKAHSGRIKISLDNDISIRECKDWHVSGSIQKNTHYMMIFDAFVILTCLVSLILCIRSVIRGLQLQQEFVNFFLLHYKKEVSVSDQMEFVNGWYIMIIISDILTIIGSILKMEIQAKSLTSYDVCSILLGTSTMLVWLGVIRYLGFFAKYNLLILTLQAALPNVIRFCCCAAMIYLGYCFCGWIVLGPYHDKFRSLNMVSECLFSLINGDDMFATFAKMQQKSYLVWLFSRIYLYSFISLFIYMILSLFIALITDTYETIKQYQQDGFPETELRTFISECKDLPNSGKYRLEDDPPVSLFCCCKK							2 fold against A419P cDNA alone

From US20090117563A1, “Identification of TRPML3 (MCOLN3) as a Salty Taste Receptor and Use in Assays for Identifying Taste (Salty) Modulators and/or Therapeutics that Modulate Sodium Transport, Absorption or Excretion and/or Aldosterone and/or Vasopressin Production or Release” (priority 2007, published 2009)
